Experimental data taken from patent US12384756B2, “Piperidinedione derivatives” (INNOCURE THERAPEUTICS, INC., priority 2021, dated 2025).
Like-named read-outs stand apart in the source and are kept apart here. Each block holds one compound with its values, some of them ahead of it.

Key:
Type in all cases: cell-based
BRD4 [1] = molecular target: T1, BRD4 (Homo sapiens, UniProt O60885); experiment: BRD4 protein degradation by western blot in MDA-MB-231 cells; set-up: BRD4 expressed in cells; endogenous in cells; host or cells: MDA-MB-231; settings: MDA-MB-231, 24 hours; for DC50: 50% inhibition of protein expression, read-out: DC50 of BRD4-targeted PROTAC
Description: (§1) Human breast cancer cell line [MDA-MB-231] was cultured in RPMI medium with 10% petal bovine serum, penicillin [100 U/ml] and streptomycin [[…]]. The synthesized compound was prepared as a stock solution of 10 mM or 50 mM dissolved in DMSO [dimethyl sulfoxide], and it was sequentially diluted to treat the cell line.
To evaluate the PROTAC's degradation ability to BRD4 expressed in cells, the cells were aliquoted into a 6 well plate at a concentration of 5×10^5 cells/ml, and then the sample was treated for 24 hours. In order to conduct western blotting assay to confirm protein expression, the cell treated with the compound was treated for 30 minutes with 70 μL of RIPA buffer wherein protease inhibitor is added. Then, cell lysate was collected on ice using a scraper and centrifuged at 4° C. 15,000 rpm for 30 minutes to obtain a supernatant containing protein. Then, SDS-PAGE is conducted for 10 μg of protein per each sample, and the protein is transferred to a membrane. The protein is reacted with antibodies of anti-BRD4, anti-tubulin and anti-GAPDH at 4° C. for 16 hours, and then, reacted with secondary antibodies at room temperature for 1 hour. The protein expression is confirmed using SUPERSIGNAL™ WEST PICO PLUS chemiluminescence substrate and image analyzer. The protein expression was normalized based on the expression value of β-tublin or GAPDH. The amount of protein expression in each sample was measured in % based on the sample treated with 0.1% DMSO vehicle which was set to 100%. The amount of protein expression was quantified using the IMAGE J PROGRAM. The change in the amount of protein expression due to the treatment of compound (DC50: the concentration of compounds where the 50% inhibition of protein expression is achieved) was calculated using […] PRISM 8.0 software.

BRD4 [2] = molecular target: T1, BRD4; experiment: BRD4 degradation by western blot in A549 cells; set-up: BRD4 expressed in cells; endogenous in cells
Description: The human lung cancer cell line A549 was purchased from the Korean Cell Line Bank.
5×10^5 cells were seeded for each well of the 6 well plate (SPL company), and the cells were cultured with a total of 1.5 mL of the culture medium volume. The cultured cells were treated with various concentrations (0 nM, 0.1 nM, 0.3 nM, 1 nM, 3 nM, 10 nM, 30 nM, 100 nM, 300 nM, 1000 nM, 3000 nM, 10000 nM) of PROTAC compound according to the present invention and cultured for 24 hours.
For cell lysis, a lysis buffer was added and cell lysate was obtained using a cell scraper.
Specifically, cells were treated with 70 μl of 1×RIPA buffer containing protease inhibitors. Cell lysate was collected on ice using a scraper and incubated for 30 minutes. Then, cells were centrifuged at 4° C. 15,000 rpm for 30 minutes to obtain a cell lysate.
The standard curve was obtained using BCA assay, and the protein mass in the lysate was quantified by substituting the standard curve. The mixture was incubated at 37° C. for 30 minutes using a sample solution of 1 μl and a BCA solution of 200 μl. The absorbance was measured at 562 nm. Samples were prepared by adding a sample buffer to reach 10 μg per well.
SDS-PAGE was conducted by setting a running time of 70 minutes at 110 V in a 4-15% Mini-PROTEAN TGX stain-free gel (15 wells). A transfer was conducted using a trans-blot turbo transfer system (Bio-rad). Blocking was conducted using a blocking-grade blocker (Bio-rad) for 1 hour. Then, it was washed with 1×TBS containing 0.1% tween 20, and reacted with anti-BRD4 antibody (1:3000) or anti-beta-tubulin antibody (1:3000) in bovine serum albumin as a primary antibody at 4° C. for 16 hours. After washing three times for 10 minutes with 1×TBS containing 0.1% tween 20, it was reacted with anti-rabbit antibody (1:10000) in the blotting-grade blocker as a secondary antibody at room temperature for 1 hour. Then, after washing three times for 10 minutes with 1×TBS containing 0.1% tween 20, detection was conducted with SUPERSIGNAL™ WEST PICO PLUS chemiluminescence substrate.
For result analysis, final blot data were obtained using an image analyzer (GE).
DC50^1): DC50 value is calculated by comparing band intensity with that of a sample which is not treated with a PROTAC compound as a controlled group.
DC50^2): DC50 value is calculated by comparing the band intensity relative to that of beta-tubulin with that of the controlled group.

[3] = test system: Human breast cancer cell line [MDA-MB-231]; experiment: Anti-proliferative activity (WST-8) of BRD4 targeted PROTAC in MDA-MB-231; settings: Homo sapiens, MDA-MB-231, 72 hours
Description: as §1
In order to observe inhibition of cell growth, cells were aliquoted into concentrations of 5,000 cells/well at 96 well plates, and then were treated with samples prepared at various concentrations for 72 hours. The cell survival was calculated by steps of adding in each well […] of water soluble tetrazolium salt (WST-8) which produces formazon in response to dehydrogenase present in the electron transport chain in mitochondria, incubating for 2 hours, measuring the absorbance at 450 nm, and calculating by GraphicPad Prism 8.0 software.

[4] = A549, 24 hours; band intensity compared with untreated control; read-out: DC50 1)
[5] = A549, 24 hours; band intensity relative to beta-tubulin compared with control; read-out: DC50 2)
[6] = WST-8, read-out: IC50 of BRD4-targeted PROTAC (cell proliferation)
[7] = read-out: concentration at which cancer cell proliferation is effectively inhibited

SMILES: Cc1sc2c(c1C)C(c1ccc(Cl)cc1)=N[C@@H](CC(=O)Nc1cccc(OCCOCCOCCNc3cccc4cnn(C5CCC(=O)NC5=O)c(=O)c34)c1)c1nnc(C)n1-2 (stereo partly drawn) [Ex. 23, 2-((S)-4-(4-chlorophenyl)-2,3,9-trimethyl-6H-thieno[3,2-f][1,2,4]triazolo[4,3-a][1,4]diazepin-6-yl)-N-(3-(2-(2-(2-((3-(2,6-dioxopiperidin-3-yl)-4-oxo-3,4-dihydrophthalazin-5-yl)amino)ethoxy)ethoxy)ethoxy)phenyl)acetamide]
BRD4 degradation (in words) (BRD4 [1]): effectively degraded
DC50 (BRD4 [1]): 2.6 nM
DC50 (BRD4 [2]; [4]): 11.3 nM
DC50 (BRD4 [2]; [5]): 10.9 nM
IC50 [3, 6]: 32.2 nM
IC50 [3, 7]: < 250 nM

SMILES: Cc1sc2c(c1C)C(c1ccc(Cl)cc1)=N[C@@H](CC(=O)Nc1ccc(OCCOCCOCCNc3ccc4cnn(C5CCC(=O)NC5=O)c(=O)c4c3)cc1)c1nnc(C)n1-2 (stereo partly drawn) [Ex. 26, 2-((S)-4-(4-chlorophenyl)-2,3,9-trimethyl-6H-thieno[3,2-f][1,2,4]triazolo[4,3-a][1,4]diazepin-6-yl)-N-(4-(2-(2-(2-((3-(2,6-dioxopiperidin-3-yl)-4-oxo-3,4-dihydrophthalazin-6-yl)amino)ethoxy)ethoxy)ethoxy)phenyl)acetamide]
DC50 (BRD4 [2]; [4]): 22 nM
DC50 (BRD4 [2]; [5]): 568 nM
IC50 [3, 6]: 126 nM

SMILES: Cc1sc2c(c1C)C(c1ccc(Cl)cc1)=N[C@@H](CC(=O)Nc1ccc(OCCOCCOCCOCCNc3cccc4cnn(C5CCC(=O)NC5=O)c(=O)c34)cc1)c1nnc(C)n1-2 (stereo partly drawn) [Ex. 27, 2-[(9S)-7-(4-chlorophenyl)-4,5,13-trimethyl-3-thia-1,8,11,12-tetraazatricyclo[8.3.0.0^2,6]trideca-2(6),4,7,10,12-pentaen-9-yl]-N-[4-(2-{2-[2-(2-{[3-(2,6-dioxopiperidin-3-yl)-4-oxo-3,4-dihydrophthalazin-5-yl]amino}ethoxy)ethoxy]ethoxy}ethoxy)phenyl]acetamide]
DC50 (BRD4 [2]; [4]): 9.21 nM
DC50 (BRD4 [2]; [5]): 11.9 nM
IC50 [3, 6]: 640 nM

More lines, now with the values ahead:

DC50 (BRD4 [2]; [4]): 56.9 nM
DC50 (BRD4 [2]; [5]): 49.6 nM
IC50 [3, 6]: 232 nM
SMILES: Cc1sc2c(c1C)C(c1ccc(Cl)cc1)=N[C@@H](CC(=O)Nc1ccc(OCCOCCOCCNc3ccc4c(=O)n(C5CCC(=O)NC5=O)ncc4c3)cc1)c1nnc(C)n1-2 (stereo partly drawn) [Ex. 25, 2-((S)-4-(4-chlorophenyl)-2,3,9-trimethyl-6H-thieno[3,2-f][1,2,4]triazolo[4,3-a][1,4]diazepin-6-yl)-N-(4-(2-(2-(2-((2-(2,6-dioxopiperidin-3-yl)-1-oxo-1,2-dihydrophthalazin-6-yl)amino)ethoxy)ethoxy)ethoxy)phenyl)acetamide]

BRD4 degradation (in words) (BRD4 [1]): effectively degraded
DC50 (BRD4 [1]): 3.3 nM
DC50 (BRD4 [2]; [4]): 25.3 nM
DC50 (BRD4 [2]; [5]): 299 nM
IC50 [3, 6]: 33.1 nM
IC50 [3, 7]: < 250 nM
SMILES: Cc1sc2c(c1C)C(c1ccc(Cl)cc1)=N[C@@H](CC(=O)Nc1ccc(OCCOCCOCCOCCNc3ccc4c(=O)n(C5CCC(=O)NC5=O)ncc4c3)cc1)c1nnc(C)n1-2 (stereo partly drawn) [Ex. 28, 2-((S)-4-(4-chlorophenyl)-2,3,9-trimethyl-6H-thieno[3,2-f][1,2,4]triazolo[4,3-a][1,4]diazepin-6-yl)-N-(4-(2-(2-(2-(2-((2-(2,6-dioxopiperidin-3-yl)-1-oxo-1,2-dihydrophthalazin-6-yl)amino)ethoxy)ethoxy)ethoxy)ethoxy)phenyl)acetamide]
